Assay results published in ChEMBL document CHEMBL1201862, “PubChem BioAssay data set” (2004).
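Following 48 hours of exposure in 96-well plates, responses at five concentrations were used to interpolate endpoints linearly. At the GI50, growth is halved.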 Calls of active or inactive are those of the source. No stated cut-off is given here; in the data, active = GI50 up to about 1.1 µM and inactive = higher.

Tests used:
Assay in all cases: NCI tumour cell line growth inhibition, 48 h
[1] = system: LXFL 529
[2] = system: RXF 393
[3] = system: OVCAR-5
[4] = system: SK-MEL-2
[5] = system: HOP-92
[6] = system: SK-MEL-5
[7] = system: NCI-H226
[8] = system: HCT-116
[9] = system: EKVX
[10] = system: HCC 2998
[11] = system: CCRF-CEM
[12] = system: NCI-H460
[13] = system: ACHN
[14] = system: UACC-257
[15] = system: CAKI-1
[16] = system: NCI-H522

Measured: GI50

CCOc1ccc(NC(=O)CC2SC(N)=NC2=O)cc1 (stereo unspecified)
inactive: [1] > 100 µM | [2] > 100 µM | [3] > 100 µM | [4] > 100 µM | [5] 55.8 µM | [6] > 100 µM | [7] > 100 µM | [8] > 100 µM | [9] > 100 µM | [10] > 100 µM | [11] > 100 µM | [12] > 100 µM | [13] > 100 µM | [14] > 100 µM

C[N+](C)(C)C.FC(F)(F)C1(C(F)(F)F)O[SiH-]2(OC(C(F)(F)F)(C(F)(F)F)c3ccccc32)c2ccccc21
inactive: [1] 12.6 µM | [2] 13 µM | [15] 26.4 µM | [3] 13.2 µM | [4] 17.7 µM | [16] 22.1 µM | [7] 4.86 µM | [9] 14.2 µM | [10] 19.2 µM | [12] 8.97 µM | [13] 22.8 µM | [14] 24.4 µM

COC(=O)c1nc(N)nc(C(=O)OC)c1C(=O)c1ccccc1
inactive: [1] > 100 µM | [2] > 100 µM | [3] > 100 µM | [4] > 100 µM | [5] 96.8 µM | [16] > 100 µM | [6] > 100 µM | [8] > 100 µM | [9] > 100 µM | [10] > 100 µM | [11] > 100 µM | [12] > 100 µM | [13] > 100 µM | [14] > 100 µM

CC(=O)OC12c3ccccc3C1CCCC21OCCCO1 (stereo unspecified)
inactive: [1] > 100 µM | [2] > 100 µM | [15] > 100 µM | [3] > 100 µM | [4] > 100 µM | [16] > 100 µM | [7] > 100 µM | [8] > 100 µM | [9] > 100 µM | [10] > 100 µM | [11] > 100 µM | [12] > 100 µM | [13] > 100 µM | [14] > 100 µM

CC1=CC(C)(C)N=C2SC(c3ccc(N)cc3)=NN12
inactive: [1] 31.6 µM | [2] > 100 µM | [15] 61.8 µM | [3] 49.7 µM | [5] 51.8 µM | [16] 58.6 µM | [6] 70.3 µM | [7] > 94.6 µM | [8] 41 µM | [9] 24.9 µM | [10] > 100 µM | [11] 27.9 µM | [12] 52.4 µM | [13] 69.3 µM | [14] > 94 µM

COc1ccc(N2C(=O)[C@@H]3[C@@H]4CC(C)CC[C@@H]4c4c([nH]c5ccccc45)[C@@H]3C2=O)cc1 (stereo partly specified)
inactive: [1] 20.3 µM | [15] 29 µM | [3] > 77.6 µM | [4] 8.79 µM | [5] 5.92 µM | [16] 19.4 µM | [6] 34 µM | [7] 7.38 µM | [8] 6.44 µM | [9] 28.9 µM | [10] 13.5 µM | [11] 24.2 µM | [12] 13.5 µM | [13] 7.36 µM | [14] 53.8 µM

CN/N=C(/Cc1occc(=O)c1O)C(=O)Nc1ccc(C)c(C)c1
inactive: [1] > 100 µM | [15] > 100 µM | [3] > 100 µM | [4] > 100 µM | [5] > 100 µM | [16] > 100 µM | [6] > 100 µM | [7] > 100 µM | [8] > 100 µM | [9] > 100 µM | [10] > 100 µM | [11] > 100 µM | [12] > 100 µM | [13] > 100 µM | [14] > 100 µM

CC1=C(C)CC2(CCCCC2=O)[S+]([O-])C1 (stereo unspecified)
inactive: [1] > 100 µM | [2] > 100 µM | [3] > 100 µM | [4] > 100 µM | [5] > 100 µM | [6] > 100 µM | [7] > 100 µM | [8] > 100 µM | [9] > 100 µM | [10] > 100 µM | [11] > 100 µM | [12] > 100 µM | [13] > 100 µM | [14] > 100 µM

O=C(Nc1c(Cl)cc([N+](=O)[O-])cc1Cl)C(=O)C(C1OC(=O)c2ccccc21)[N+](=O)[O-] (stereo unspecified)
inactive: [1] > 100 µM | [2] > 100 µM | [15] > 100 µM | [3] > 100 µM | [4] > 100 µM | [5] 15.1 µM | [6] > 100 µM | [7] > 100 µM | [8] > 100 µM | [9] 75.9 µM | [10] > 100 µM | [11] > 100 µM | [12] > 100 µM | [13] > 100 µM | [14] > 100 µM

CC1=NOC(=O)C1/N=N/c1ccc(Br)c(C)c1 (stereo unspecified)
inactive: [1] 15.5 µM | [2] 19.7 µM | [15] 16.1 µM | [3] 24.9 µM | [4] 16.3 µM | [5] 17.3 µM | [6] 12.7 µM | [7] 25.5 µM | [8] 17.7 µM | [9] 18 µM | [10] 24.8 µM | [11] 11.8 µM | [12] 23.9 µM | [13] 17.8 µM | [14] 17.5 µM

NC12CC3CC(C1)CC(Cl)(C3)C2
inactive: [1] > 100 µM | [2] > 100 µM | [3] > 100 µM | [4] > 100 µM | [5] > 100 µM | [16] > 100 µM | [8] > 100 µM | [9] > 100 µM | [10] > 100 µM | [11] > 100 µM | [12] > 100 µM | [13] > 100 µM | [14] > 100 µM

Cc1noc(/N=C2\C=C(Nc3onc(C)c3C)C(=O)c3ccccc32)c1C
inactive: [1] 25.5 µM | [2] > 100 µM | [15] > 100 µM | [3] > 100 µM | [4] 48.1 µM | [5] > 100 µM | [6] 15.6 µM | [7] > 100 µM | [8] 95.5 µM | [9] > 100 µM | [10] > 100 µM | [11] > 100 µM | [12] > 100 µM | [13] > 100 µM | [14] 36.7 µM

O=C(CCN(C(=O)O)S(=O)(=O)c1ccc(NC(=O)c2ccccc2)cc1)NC1CCCCC1
inactive: [1] > 100 µM | [15] > 100 µM | [3] > 100 µM | [4] > 100 µM | [5] > 100 µM | [16] > 100 µM | [6] > 100 µM | [7] > 100 µM | [8] > 100 µM | [9] > 100 µM | [10] > 100 µM | [11] 27.6 µM | [12] 42.4 µM | [13] > 100 µM | [14] > 100 µM

CCOC(=O)C1=C(N)N(c2ccccc2)/C(=C(/C#N)c2nc3ccccc3[nH]2)S1
inactive: [1] > 100 µM | [2] > 100 µM | [15] > 100 µM | [3] > 100 µM | [4] > 100 µM | [5] > 100 µM | [16] > 100 µM | [6] > 100 µM | [7] > 100 µM | [8] > 100 µM | [9] > 100 µM | [11] > 100 µM | [12] 43 µM | [13] > 100 µM | [14] > 100 µM
